Data published in patent US11076595B2, “1-(n,n-disubstituted carbamoyl) 4-(substituted sulfonyl)triazolin-5-one derivative, 4-(n,n-disubstituted carbamoyl) 1-(substituted sulfonyl)triazolin-5-one derivative, and herbicide containing said derivative as active ingredient” (HOKKO CHEMICAL INDUSTRY CO., LTD., priority 2017, dated 2021).

Tests used:
Assay type in all cases: in vivo
[1] = tested on: Monochoria vaginalis; assay: Test Example 11: herbicidal effect test by soil treatment in paddy field; details: 120 g/10a active ingredient, 14 days after treatment
Procedure, shortened: (§1)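 Pre-emergence paddy test, 120 g a.i./10 are, emulsifiable concentrate diluted in water and added dropwise to ~3 cm flood water right after sowing (30 seeds/species, 0–1 cm depth, fertilized puddled soil). Greenhouse; 2 replicates; dry-weight suppression (%) vs untreated, day 14.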

[2] = tested on: Echinochloa crus-galli; assay: as above; details: 120 g/10a active ingredient, 14 days after treatment
Procedure, shortened: as §1

[3] = tested on: Lindernia pyxidaria; assay: as above; details: 120 g/10a active ingredient, 14 days after treatment
Procedure, shortened: as §1

[4] = tested on: Scirpus juncoides; assay: as above; details: 120 g/10a active ingredient, 14 days after treatment
Procedure, shortened: as §1

[5] = tested on: Monochoria vaginalis; assay: Test Example 12: herbicidal effect test by treatment during growing period in paddy field; details: 120 g/10a; treatment seven days after sowing in flooded paddy pot; assessed 14 days after treatment
Procedure, shortened: (§2)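 Water-diluted emulsifiable concentrate added dropwise to flooded pots (~3 cm water) 7 d after sowing; rate 120 g active ingredient per 10 are. Weeds grown from 30 seeds each in puddled paddy soil under greenhouse conditions. Dry-weight suppression rate relative to untreated plots determined 14 d after treatment, duplicates.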

[6] = tested on: Echinochloa crus-galli; assay: as above; details: 120 g/10a; treatment seven days after sowing in flooded paddy pot; assessed 14 days after treatment
Procedure, shortened: as §2

[7] = tested on: Lindernia pyxidaria; assay: as above; details: 120 g/10a; treatment seven days after sowing in flooded paddy pot; assessed 14 days after treatment
Procedure, shortened: as §2

[8] = tested on: Scirpus juncoides; assay: as above; details: 120 g/10a; treatment seven days after sowing in flooded paddy pot; assessed 14 days after treatment
Procedure, shortened: as §2

| Structure (SMILES) | Weed suppression rate (%) Monochoria vaginalis [1] [%] | Weed suppression rate (%) Echinochloa crus-galli [2] [%] | Weed suppression rate (%) Lindemia pyxidaria [3] [%] | Weed suppression rate (%) Scirpus juncoides [4] [%] | Weed suppression rate (%) Monochoria vaginalis [5] [%] | Weed suppression rate (%) Echinochloa crus-galli [6] [%] | Weed suppression rate (%) Lindemia pyxidaria [7] [%] | Weed suppression rate (%) Scirpus juncoides [8] [%] |
| --- | --- | --- | --- | --- | --- | --- | --- | --- |
| Cc1ccc(N(C(=O)n2cnn(S(=O)(=O)c3c(F)c(F)c(F)c(F)c3F)c2=O)C(C)C)c(F)c1 [Compound 11-825] | 80 | 90 | 80 | 90 | 80 | 90 | 80 | 90 |
| Cc1cc(C)c(S(=O)(=O)n2ncn(C(=O)N(c3ccccc3F)C(C)C)c2=O)c(C)c1 [Compound 11-853] | 80 | 100 | 90 | 90 | 80 | 90 | 80 | 90 |
| Cc1cc(C)c(S(=O)(=O)n2ncn(C(=O)N(c3cccc(F)c3)C(C)C)c2=O)c(C)c1 [Compound 11-854] | 80 | 100 | 90 | 90 | 90 | 80 | 90 | 80 |
| Cc1cc(C)c(S(=O)(=O)n2ncn(C(=O)N(c3ccc(F)cc3)C(C)C)c2=O)c(C)c1 [Compound 11-855] | 90 | 100 | 90 | 90 | 80 | 80 | 60 | 80 |
| Cc1cc(C)c(S(=O)(=O)n2ncn(C(=O)N(c3cccc(F)c3F)C(C)C)c2=O)c(C)c1 [Compound 11-862] | 100 | 100 | 100 | 100 | 100 | 100 | 80 | 100 |
| Cc1cc(C)c(S(=O)(=O)n2ncn(C(=O)N(c3ccc(F)c(F)c3F)C(C)C)c2=O)c(C)c1 [Compound 11-866] | 90 | 100 | 100 | 90 | 90 | 80 | 70 | 60 |
| Cc1cc(C)c(S(=O)(=O)n2ncn(C(=O)N(c3c(F)cc(F)cc3F)C(C)C)c2=O)c(C)c1 [Compound 11-867] | 80 | 100 | 100 | 80 | 80 | 100 | 70 | 80 |
| Cc1cc(C)c(S(=O)(=O)n2ncn(C(=O)N(c3c(F)c(F)cc(F)c3F)C(C)C)c2=O)c(C)c1 [Compound 11-868] | 70 | 100 | 100 | 100 | 80 | 90 | 90 | 60 |
| Cc1cc(C)c(S(=O)(=O)n2ncn(C(=O)N(c3ccc(Cl)cn3)C(C)C)c2=O)c(C)c1 [Compound 11-889] | 80 | 100 | 100 | 90 | 80 | 100 | 70 | 90 |
| CC(C)N(C(=O)n1cnn(S(=O)(=O)c2cccs2)c1=O)c1ccc(F)cc1 [Compound 11-1014] | 80 | 90 | 90 | 90 | 80 | 90 | 80 | 90 |
